Assay results reported in patent US11261200B2, “Heteroaryltrifluoroborate compounds for the treatment of mycobacterial infections” (The Global Alliance for TB Drug Development, Inc., priority 2016, dated 2022).
Values after ≈ are worked out from the molar mass of the structure shown. Where two headings read alike, the source gives them in different places.

Assays:
[1] = system: MtbH37Rv pncA-knock out strain; assay: microbe, parasite or virus in culture; type: cell-based, Mycobacterium tuberculosis; conditions: for MIC: pH 5.2
Vero cells = assay: Mammalian cell toxicity assay (CellTiter 96 Non-Radioactive Cell Proliferation Assay); type: cell-based; conditions: read-out: Vero cell IC50
[2] = system: MtbH37Rv pncA-knock out strain; assay: microbe, parasite or virus in culture; type: cell-based, Mycobacterium tuberculosis; conditions: pH 6.7
M tb H37Rv [3] = assay: microbe, parasite or virus in culture; type: cell-based, Mycobacterium tuberculosis; conditions: pH 5.2
M tb H37Rv [4] = assay: microbe, parasite or virus in culture; type: cell-based, Mycobacterium tuberculosis; conditions: pH 6.7
Mtb H37Rv-PH-GFP = type: cell-based, Mycobacterium tuberculosis; conditions: acidic medium (pH 5.2), FIG. 1-3
Mtb = conditions: standard culture conditions; cited from earlier work
[5] = Mycobacterium tuberculosis, read-out: MIC 5.2 KO
[6] = Chlorocebus sabaeus, Table 1, Vero cells, 72 hours
[7] = Mycobacterium tuberculosis, read-out: MIC 6.7 KO
[8] = Mycobacterium tuberculosis, H37RV, read-out: MIC 5.2 WT
[9] = Mycobacterium tuberculosis, H37RV, read-out: MIC 6.7 WT
[10] = Chlorocebus sabaeus, Vero, 72 h

| Structure (SMILES) | MIC [1, 5] | MIC [2, 7] | MIC (M tb H37Rv [3]; [8]) | MIC (M tb H37Rv [4]; [9]) | MIC ([1]; read-out: MIC5.2KO) | IC50 (Vero cells; Table 1, Vero cells, 72 hours) | MIC ([2]; read-out: MIC6.7KO) | MIC (M tb H37Rv [3]; read-out: MIC5.2WT) | MIC (M tb H37Rv [4]; read-out: MIC6.7WT) | further results |
| --- | --- | --- | --- | --- | --- | --- | --- | --- | --- | --- |
| F[B-](F)(F)c1cncc(C(F)(F)F)c1 [Compound 12-3, [trifluoro-[5-(trifluoromethyl)-3-pyridyl]-boranyl]potassium(1+)] | 100 µM | > 200 µM | 100 µM | > 200 µM | – | – | – | – | – | IC50 (Vero cells; [6]): > 100 µM |
| Fc1cncc([B-](F)(F)F)c1.[K+] [Compound 4-2, [trifluoro-(5-fluoro-3-pyridyl)-boranyl] potassium(1+)] | – | – | – | – | 25 µM | > 100 µM | 100 µM | 50 µM | 200 µM | – |
| FB(F)c1cncc(N2CCCC2)n1 [Compound 7-5, potassium; difluoro-(6-pyrrolidin-1-ylpyrazin-2-yl)borane; fluoride] | 50 µM | > 200 µM | 100 µM | > 200 µM | – | – | – | – | – | IC50 (Vero cells; [10]): > 100 µM |
| NNC(=O)c1ccncc1 [Isoniazid (INH), Isoniazid] | – | – | – | – | – | – | – | – | – | change in internal pH of Mtb (Mtb H37Rv-PH-GFP): does not have any effect on internal pH |
| NC(=O)c1cnccn1 [Pyrazinamide (PZA), Pyrazinamide, reference compound] | > 400 µM | > 400 µM | 100 µM (≈ 12.3 µg/mL) | > 400 µM | – | – | – | – | – | MIC ([1]; Mycobacterium tuberculosis, read-out: MIC5.2KO): > 400 µM; activity against pncA KO strain of Mtb ([1]; result in words): not active against an Mtb strain whose pncA is knocked out; IC50 (Vero cells; [6]): > 100 µM; IC50 (Vero cells; Table 2, Vero cells, 72 hours): > 100 µM; MIC ([2]; Mycobacterium tuberculosis, read-out: MIC6.7KO): > 400 µM; minimum inhibitory concentration against Mtb (Mtb): > 200 µM; MIC (M tb H37Rv [3]; Mycobacterium tuberculosis, H37RV, read-out: MIC5.2WT): 100 µM (≈ 12.3 µg/mL); MIC (M tb H37Rv [3]; Mycobacterium tuberculosis, H37RV, read-out: MIC against Mtb at pH 5.2): 100 to 200 µM (≈ 12.3 to 24.6 µg/mL); MIC (M tb H37Rv [4]; Mycobacterium tuberculosis, H37RV, read-out: MIC6.7WT): > 400 µM; MIC (M tb H37Rv [4]; Mycobacterium tuberculosis, H37RV, read-out: MIC at pH 6.7): > 400 µM; change in internal pH of Mtb (Mtb H37Rv-PH-GFP): lowering internal pH of Mtb |
| F[B-](F)(F)c1cncc(Cl)c1.[K+] [Compound 5-2, [(5-chloro-3-pyridyl)-trifluoro-boranyl] potassium(1+)] | – | – | – | – | 50 µM | > 100 µM | 100 µM | 50 µM | 100 µM | – |
| N#Cc1cncc([B-](F)(F)F)c1 [Compound 11-2, potassium (5-cyanopyridin-3-yl)trifluoroborate] | 100 µM | > 200 µM | 100 µM | > 200 µM | – | – | – | – | – | IC50 (Vero cells; [10]): > 100 µM |
| COc1cncc([B-](F)(F)F)n1.[K+] [Compound 2-5, [trifluoro-(6-methoxypyrazin-2-yl)-boranyl]potassium(1+)] | – | – | – | – | 25 µM | > 100 µM | >200 µM | 50 µM | >200 µM | – |
